Assay results taken from ChEMBL document CHEMBL3734692, “Design and synthesis of 2-oxindole based multi-targeted inhibitors of PDK1/Akt signaling pathway for the treatment of glioblastoma multiforme” (Eur J Med Chem, 2015).
Active and inactive are the calls of the source. No cut-off for these calls is given here.

Tests used:
[1] = biological target: Phosphatidylinositol 4-kinase beta (Homo sapiens) (UniProt Q9UBF8); assay: Inhibition of PI4Kbeta (unknown origin) at 1 uM by selectscreen kinase profiling assay in presence of ATP
[2] = Induction of apoptosis in human ANGM-CSS cells assessed as live cells at 1 uM after 7 days by annexin V-FITC/7-AAD dual staining based cell analysis (reference value: 92.21%); format: functional
[3] = tested on: RAF proto-oncogene serine/threonine-protein kinase (Homo sapiens), P04049 [Y340D,Y341D]; assay: Inhibition of RAF1 Y340D/Y341D double mutant (unknown origin) at 1 uM by selectscreen kinase profiling assay in presence of ATP
[4] = Cell cycle arrest in human ANGM-CSS cells assessed as accumulation at G2/M phase at 1 uM after 7 days by based fluorescent reagent based cell analysis (reference value: 23.8%); format: functional
[5] = biological target: Rho-associated protein kinase 2 (Homo sapiens) (UniProt O75116); assay: Inhibition of ROCK2 (unknown origin) at 1 uM by selectscreen kinase profiling assay in presence of ATP
[6] = biological target: Dual specificity mitogen-activated protein kinase kinase 1 (Homo sapiens) (UniProt Q02750); assay: Inhibition of MEK1 (unknown origin) at 1 uM by selectscreen kinase profiling assay in presence of ATP
[7] = biological target: Serine/threonine-protein kinase B-raf (Homo sapiens) (UniProt P15056); assay: Inhibition of BRAF (unknown origin) at 1 uM by selectscreen kinase profiling assay in presence of ATP
[8] = biological target: G protein-coupled receptor kinase 5 (Homo sapiens) (UniProt P34947); assay: Inhibition of GRK5 (unknown origin) at 1 uM by selectscreen kinase profiling assay in presence of ATP
[9] = Induction of apoptosis in human GSC derived from ANGM-CSS cells assessed as early apoptotic cells at 1 uM after 7 days by annexin V-FITC/7-AAD dual staining based cell analysis (reference value: 3.29%); format: functional
ANGM-CSS [10] = assay: Induction of human GSC differentiation derived from ANGM-CSS cells assessed as down regulation of CD133 mRNA expression at 1 uM after 7 days by RT-PCR analysis; format: functional, cell-based
[11] = Antiproliferative activity against human ANGM-CSS cells assessed as inhibition of cell growth after 120 hrs by WST1 assay; format: functional
ASPC1 = assay: Cytotoxicity against human AsPC1 cells assessed as cell viability 10 uM after 72 hrs by cell counting analysis relative to control; format: functional
[12] = biological target: Cyclin-dependent kinase 5/CDK5 activator 1 (Homo sapiens) (UniProt Q00535+Q15078); assay: Inhibition of CDK5/p35 (unknown origin) at 1 uM by selectscreen kinase profiling assay in presence of ATP; format: protein-complex assay
[13] = biological target: Tyrosine-protein kinase JAK1 (Homo sapiens) (UniProt P23458); assay: Inhibition of JAK1 (unknown origin) at 1 uM by selectscreen kinase profiling assay in presence of ATP
[14] = biological target: Tyrosine-protein kinase BTK (Homo sapiens) (UniProt Q06187); assay: Inhibition of BTK (unknown origin) at 1 uM by selectscreen kinase profiling assay in presence of ATP
[15] = biological target: Calcium/calmodulin-dependent protein kinase type II subunit alpha (Homo sapiens) (UniProt Q9UQM7); assay: Inhibition of CAMK2alpha (unknown origin) at 1 uM by selectscreen kinase profiling assay in presence of ATP
[16] = Induction of apoptosis in human GSC derived from ANGM-CSS cells assessed as late apoptotic cells at 1 uM after 7 days by annexin V-FITC/7-AAD dual staining based cell analysis (reference value: 2.51%); format: functional
[17] = biological target: PI3-kinase p110-alpha/p85-alpha (Homo sapiens) (UniProt P27986+P42336); assay: Inhibition of PIK3CA/PIK3R1 (unknown origin) at 1 uM by selectscreen kinase profiling assay in presence of ATP; format: protein-complex assay
[18] = biological target: RAC-alpha serine/threonine-protein kinase (Homo sapiens) (UniProt P31749); assay: Inhibition of recombinant Akt1 (unknown origin) incubated for 1 hr by Z'Lyte assay
[19] = Antiproliferative activity against human U118MG cells assessed as inhibition of cell growth after 96 hrs by WST1 assay; format: functional; details: U-118-MG
[20] = Cell cycle arrest in human ANGM-CSS cells assessed as accumulation at G0/G1 phase at 1 uM after 7 days by based fluorescent reagent based cell analysis (reference value: 60.7%); format: functional
[21] = biological target: T1, 3-phosphoinositide-dependent protein kinase 1 (Homo sapiens, UniProt O15530); assay: Inhibition of PDK1 (unknown origin) incubated for 1 hr by Z'Lyte assay
T1 sequence (O15530 whole entry): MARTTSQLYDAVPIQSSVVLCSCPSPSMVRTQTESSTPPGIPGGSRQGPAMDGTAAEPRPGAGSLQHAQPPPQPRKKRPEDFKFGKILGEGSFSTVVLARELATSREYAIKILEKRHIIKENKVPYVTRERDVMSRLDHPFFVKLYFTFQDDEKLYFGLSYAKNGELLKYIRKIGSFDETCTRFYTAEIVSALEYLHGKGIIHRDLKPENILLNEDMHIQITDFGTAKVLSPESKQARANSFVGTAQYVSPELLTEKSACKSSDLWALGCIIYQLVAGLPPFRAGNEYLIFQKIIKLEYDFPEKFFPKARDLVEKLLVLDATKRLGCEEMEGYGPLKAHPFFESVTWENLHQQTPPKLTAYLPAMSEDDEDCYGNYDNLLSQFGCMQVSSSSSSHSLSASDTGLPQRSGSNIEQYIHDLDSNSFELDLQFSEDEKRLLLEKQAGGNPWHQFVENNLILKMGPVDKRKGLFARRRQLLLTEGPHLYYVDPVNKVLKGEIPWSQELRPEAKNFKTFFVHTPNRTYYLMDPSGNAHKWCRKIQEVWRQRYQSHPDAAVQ

[22] = biological target: Ribosomal protein S6 kinase alpha-1 (Homo sapiens) (UniProt Q15418); assay: Inhibition of RSK1 (unknown origin) at 1 uM by selectscreen kinase profiling assay in presence of ATP
[23] = biological target: Rho-associated protein kinase 1 (Homo sapiens) (UniProt Q13464); assay: Inhibition of ROCK1 (unknown origin) at 1 uM by selectscreen kinase profiling assay in presence of ATP
[24] = biological target: Serine/threonine-protein kinase MRCK alpha (Homo sapiens) (UniProt Q5VT25); assay: Inhibition of MRCKalpha (unknown origin) at 1 uM by selectscreen kinase profiling assay in presence of ATP
[25] = biological target: Inhibitor of nuclear factor kappa-B kinase subunit alpha (Homo sapiens) (UniProt O15111); assay: Inhibition of IKKalpha (unknown origin) at 1 uM by selectscreen kinase profiling assay in presence of ATP
[26] = biological target: Serine/threonine-protein kinase Chk1 (Homo sapiens) (UniProt O14757); assay: Inhibition of CHEK1 (unknown origin) at 1 uM by selectscreen kinase profiling assay in presence of ATP
ANGM-CSS [27] = assay: Effect on human GSC morphology derived from ANGM-CSS cells assessed as reduction in area occupied by floating spheres at 1 uM after 7 days by microscopic analysis; format: functional, cell-based

Sequence of Ribosomal protein S6 kinase alpha-1 (Homo sapiens) (Q15418 whole entry): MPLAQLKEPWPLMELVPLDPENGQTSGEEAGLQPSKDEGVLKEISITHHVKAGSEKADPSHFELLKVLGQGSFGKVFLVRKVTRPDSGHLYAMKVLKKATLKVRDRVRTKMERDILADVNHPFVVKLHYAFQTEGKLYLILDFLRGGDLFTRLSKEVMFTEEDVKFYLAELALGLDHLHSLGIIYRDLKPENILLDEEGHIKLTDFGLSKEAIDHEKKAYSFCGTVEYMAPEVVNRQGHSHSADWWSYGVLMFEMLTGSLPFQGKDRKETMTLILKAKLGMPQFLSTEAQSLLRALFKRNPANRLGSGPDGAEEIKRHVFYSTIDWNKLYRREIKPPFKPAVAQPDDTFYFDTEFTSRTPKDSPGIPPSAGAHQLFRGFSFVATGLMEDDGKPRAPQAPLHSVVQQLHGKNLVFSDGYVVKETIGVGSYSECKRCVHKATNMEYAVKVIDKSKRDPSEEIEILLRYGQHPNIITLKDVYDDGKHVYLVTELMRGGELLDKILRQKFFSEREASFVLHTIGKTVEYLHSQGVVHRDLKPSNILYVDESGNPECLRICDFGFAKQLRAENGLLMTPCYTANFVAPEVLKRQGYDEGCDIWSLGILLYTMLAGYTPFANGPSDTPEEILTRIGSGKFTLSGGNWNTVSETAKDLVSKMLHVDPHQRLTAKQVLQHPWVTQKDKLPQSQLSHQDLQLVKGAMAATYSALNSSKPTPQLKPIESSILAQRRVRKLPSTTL
Sequence of RAC-alpha serine/threonine-protein kinase (Homo sapiens) (P31749 whole entry): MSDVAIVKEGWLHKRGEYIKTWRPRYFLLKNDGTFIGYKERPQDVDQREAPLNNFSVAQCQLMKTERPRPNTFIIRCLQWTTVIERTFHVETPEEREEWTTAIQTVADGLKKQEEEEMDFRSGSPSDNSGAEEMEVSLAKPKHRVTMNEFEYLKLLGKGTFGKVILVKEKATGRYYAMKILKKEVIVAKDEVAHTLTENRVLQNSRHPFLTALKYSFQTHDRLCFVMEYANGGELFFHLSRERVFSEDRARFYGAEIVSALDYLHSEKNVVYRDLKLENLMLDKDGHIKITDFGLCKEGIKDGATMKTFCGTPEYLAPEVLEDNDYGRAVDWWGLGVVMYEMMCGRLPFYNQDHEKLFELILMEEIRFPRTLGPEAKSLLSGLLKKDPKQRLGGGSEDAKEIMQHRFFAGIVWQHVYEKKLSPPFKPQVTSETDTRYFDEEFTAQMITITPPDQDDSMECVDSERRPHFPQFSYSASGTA
Sequence of Tyrosine-protein kinase BTK (Homo sapiens) (Q06187 whole entry): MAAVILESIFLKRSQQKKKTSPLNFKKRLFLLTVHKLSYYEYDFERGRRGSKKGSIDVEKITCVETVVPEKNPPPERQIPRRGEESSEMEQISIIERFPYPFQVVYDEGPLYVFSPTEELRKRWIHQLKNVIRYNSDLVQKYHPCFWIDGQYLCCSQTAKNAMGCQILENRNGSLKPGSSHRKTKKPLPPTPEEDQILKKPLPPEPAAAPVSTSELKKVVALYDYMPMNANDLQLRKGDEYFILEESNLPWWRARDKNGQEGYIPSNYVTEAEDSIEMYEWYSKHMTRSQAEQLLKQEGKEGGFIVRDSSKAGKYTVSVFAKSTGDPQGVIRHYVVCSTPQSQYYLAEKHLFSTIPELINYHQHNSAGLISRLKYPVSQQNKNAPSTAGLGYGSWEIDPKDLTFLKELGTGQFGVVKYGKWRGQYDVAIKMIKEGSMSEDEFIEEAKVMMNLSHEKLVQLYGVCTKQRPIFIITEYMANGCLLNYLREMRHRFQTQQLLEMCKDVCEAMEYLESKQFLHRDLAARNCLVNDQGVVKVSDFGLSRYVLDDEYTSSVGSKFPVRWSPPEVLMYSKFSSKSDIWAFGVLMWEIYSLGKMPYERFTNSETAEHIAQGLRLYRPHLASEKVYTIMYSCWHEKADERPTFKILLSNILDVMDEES
Sequence of G protein-coupled receptor kinase 5 (Homo sapiens) (P34947 whole entry, looked up): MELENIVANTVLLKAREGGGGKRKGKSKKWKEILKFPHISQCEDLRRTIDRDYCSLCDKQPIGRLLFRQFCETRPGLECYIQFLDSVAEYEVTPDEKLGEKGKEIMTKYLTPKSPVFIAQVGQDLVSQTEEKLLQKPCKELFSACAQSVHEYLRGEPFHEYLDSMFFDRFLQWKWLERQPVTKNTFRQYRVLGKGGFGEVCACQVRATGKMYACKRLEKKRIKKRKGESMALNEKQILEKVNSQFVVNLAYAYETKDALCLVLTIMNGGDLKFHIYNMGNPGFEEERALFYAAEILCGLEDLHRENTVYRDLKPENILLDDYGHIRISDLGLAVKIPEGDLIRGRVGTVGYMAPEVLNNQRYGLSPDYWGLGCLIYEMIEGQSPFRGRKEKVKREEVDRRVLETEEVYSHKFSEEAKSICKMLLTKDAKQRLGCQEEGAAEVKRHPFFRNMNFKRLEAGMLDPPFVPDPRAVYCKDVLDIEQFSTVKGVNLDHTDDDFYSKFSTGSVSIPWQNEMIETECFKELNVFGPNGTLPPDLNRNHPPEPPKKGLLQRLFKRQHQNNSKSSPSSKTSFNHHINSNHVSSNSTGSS
Sequence of Serine/threonine-protein kinase Chk1 (Homo sapiens) (O14757 whole entry): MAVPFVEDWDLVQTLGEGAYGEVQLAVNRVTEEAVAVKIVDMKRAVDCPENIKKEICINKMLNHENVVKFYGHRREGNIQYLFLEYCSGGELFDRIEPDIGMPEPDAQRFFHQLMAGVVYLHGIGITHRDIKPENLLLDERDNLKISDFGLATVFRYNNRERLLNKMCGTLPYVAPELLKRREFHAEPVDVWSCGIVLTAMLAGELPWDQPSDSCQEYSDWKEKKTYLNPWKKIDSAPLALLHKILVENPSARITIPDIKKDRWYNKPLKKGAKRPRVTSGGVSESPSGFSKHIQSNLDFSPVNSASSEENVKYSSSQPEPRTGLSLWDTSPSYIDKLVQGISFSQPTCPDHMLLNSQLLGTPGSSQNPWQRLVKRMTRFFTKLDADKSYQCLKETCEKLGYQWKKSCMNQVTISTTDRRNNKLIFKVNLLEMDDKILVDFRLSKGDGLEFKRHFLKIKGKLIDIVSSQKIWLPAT
Sequence of Calcium/calmodulin-dependent protein kinase type II subunit alpha (Homo sapiens) (Q9UQM7 whole entry): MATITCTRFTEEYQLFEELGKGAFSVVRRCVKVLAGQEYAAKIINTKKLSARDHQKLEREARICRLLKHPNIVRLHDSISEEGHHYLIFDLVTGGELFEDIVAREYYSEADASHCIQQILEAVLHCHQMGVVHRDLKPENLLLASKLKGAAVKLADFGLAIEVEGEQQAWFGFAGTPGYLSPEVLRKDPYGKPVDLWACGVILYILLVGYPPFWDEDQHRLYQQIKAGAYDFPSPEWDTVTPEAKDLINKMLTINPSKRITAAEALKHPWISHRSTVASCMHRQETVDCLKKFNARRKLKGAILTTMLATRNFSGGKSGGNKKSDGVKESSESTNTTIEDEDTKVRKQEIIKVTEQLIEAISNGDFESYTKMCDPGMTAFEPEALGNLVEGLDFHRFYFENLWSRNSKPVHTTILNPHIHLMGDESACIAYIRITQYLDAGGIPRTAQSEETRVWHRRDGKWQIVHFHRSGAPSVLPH
Sequence of Inhibitor of nuclear factor kappa-B kinase subunit alpha (Homo sapiens) (O15111 whole entry): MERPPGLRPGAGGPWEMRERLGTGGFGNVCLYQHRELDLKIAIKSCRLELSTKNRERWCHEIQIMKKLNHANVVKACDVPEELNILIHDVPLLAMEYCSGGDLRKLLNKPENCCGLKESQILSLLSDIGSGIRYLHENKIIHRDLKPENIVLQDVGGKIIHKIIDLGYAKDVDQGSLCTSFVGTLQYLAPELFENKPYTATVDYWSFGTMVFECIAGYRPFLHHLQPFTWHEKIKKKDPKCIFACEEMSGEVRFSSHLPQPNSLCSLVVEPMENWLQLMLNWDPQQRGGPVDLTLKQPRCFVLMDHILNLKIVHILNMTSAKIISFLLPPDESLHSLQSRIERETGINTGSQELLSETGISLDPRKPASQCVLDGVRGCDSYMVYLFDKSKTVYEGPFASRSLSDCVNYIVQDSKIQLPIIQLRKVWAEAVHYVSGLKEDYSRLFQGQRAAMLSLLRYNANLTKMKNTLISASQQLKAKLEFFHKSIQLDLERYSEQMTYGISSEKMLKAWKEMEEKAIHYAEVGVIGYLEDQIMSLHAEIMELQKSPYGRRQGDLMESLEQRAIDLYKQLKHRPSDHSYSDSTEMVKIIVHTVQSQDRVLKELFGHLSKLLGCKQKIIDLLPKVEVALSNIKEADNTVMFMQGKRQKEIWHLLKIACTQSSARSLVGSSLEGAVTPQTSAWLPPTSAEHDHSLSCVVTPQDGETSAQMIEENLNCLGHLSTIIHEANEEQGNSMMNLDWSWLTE
Sequence of RAF proto-oncogene serine/threonine-protein kinase (Homo sapiens), P04049 [Y340D,Y341D] (P04049 whole entry Y340D/Y341D): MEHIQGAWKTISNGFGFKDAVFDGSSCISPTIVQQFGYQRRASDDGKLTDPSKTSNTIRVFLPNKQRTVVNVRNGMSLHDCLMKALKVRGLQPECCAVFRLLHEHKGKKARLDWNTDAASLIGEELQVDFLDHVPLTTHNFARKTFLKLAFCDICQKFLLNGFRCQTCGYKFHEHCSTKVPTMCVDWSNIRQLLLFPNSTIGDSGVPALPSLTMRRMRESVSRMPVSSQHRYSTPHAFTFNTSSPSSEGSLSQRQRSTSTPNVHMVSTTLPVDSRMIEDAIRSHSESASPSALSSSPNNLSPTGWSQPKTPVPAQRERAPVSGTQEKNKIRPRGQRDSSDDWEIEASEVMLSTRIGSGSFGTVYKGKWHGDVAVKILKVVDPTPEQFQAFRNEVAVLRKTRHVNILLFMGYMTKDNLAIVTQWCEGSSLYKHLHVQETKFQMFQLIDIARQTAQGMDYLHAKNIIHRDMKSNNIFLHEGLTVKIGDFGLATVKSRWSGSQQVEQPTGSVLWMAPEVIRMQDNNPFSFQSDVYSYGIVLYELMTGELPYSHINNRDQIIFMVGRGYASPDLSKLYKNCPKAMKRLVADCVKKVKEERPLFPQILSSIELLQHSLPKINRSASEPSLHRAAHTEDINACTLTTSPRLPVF

Compound: COc1cc2c(cc1OC)CN(CC(=O)Nc1ccc3c(c1)/C(=C/c1cnc[nH]1)C(=O)N3)CC2
- inhibition [1]: 5%
- Activity [2]: 79.63%
- inhibition [3]: 25%
- Activity [4]: 17.2%
- inhibition [5]: -5%
- inhibition [6]: 37%
- inhibition [7]: 28%
- inhibition [8]: 10%
- Activity [9]: 12.65%
- Activity (ANGM-CSS [10]): Active
- GI50 [11]: 12.9 µM
- Activity (ASPC1): 68.14%
- inhibition [12]: 40%
- inhibition [13]: -1%
- inhibition [14]: 12%
- inhibition [15]: 1%
- Activity [16]: 4.93%
- inhibition [17]: -6%
- inhibition [18]: inactive
- GI50 [19]: 29.9 µM
- Activity [20]: 72.6%
- IC50 [21]: 0.98 µM
- inhibition [22]: 44%
- inhibition [23]: 8%
- inhibition [24]: -8%
- inhibition [25]: 26%
- inhibition [26]: 61%
- Activity (ANGM-CSS [27]): Active
